{"source": "patent US20030049267A1", "about": "“Systemic immune response induced by mucosal administration of lipid-tailed polypeptides without adjuvant” (INSTITUT PASTEUR, priority 1999, published 2003)", "assay_type_in_all_cases": "in vivo", "key": {"[1]": {"system": "BALB/c, C3H/HeJ, or C57BL/6 mice", "assay": "Serum polypeptide-specific IgG ELISA after immunization with LSA3-NRII polypeptides", "description": "To investigate the ability of lipid-tailed polypeptides to induce systemic antibody responses using mucosal route, the LSA3-NRII lipid-tailed polypeptide was administrated either intranasally (I.N.) or sub-lingually (S.L.) in BALB/c, C3H/HeJ which were found previously to respond strongly to the epitopes of LSA3-NRII, or C57BL/6 mice which is poorly responsive. Negative and positive controls received respectively, the non-lipidated polypeptide administrated by IN and S.L. route, or the same lipid-tailed polypeptide injected subcutaneously (S.C.) without adjuvant.\nIndividual blood samples were obtained via the retro-orbital plexus by 9 to 15 days post immunization (dpi) and sera were stored at-70i C until assayed for IgG, IgA and IgM polypeptide- and parasite-specific Abs. The presence of anti-peptide antibodies in sera was determined using Enzyme-linked immunosorbent assay (ELISA) as reported previously (BenMohamed et coll., 1997). ELISA plates (Nunc, Roskilde, Denmark) were coated overnight at 4i C with 0.1 ml of LSA3-NRII or LSA1-J polypeptide solution at 3 zg/ml in PBS buffer pH 7.4 containing 3% BSA. The LSA1-J polypeptide was used as the irrelevant control of LSA3-NRII and vice versa. The plates were washed twice in PBS with 0.01% Tween-20 (PBS-T), blocked for 1 hr in PBS-T supplemented with 1% BSA prior to the addition of 0.1 ml of 1/100 dilution of mouse sera. The plates were then incubated at 37iC for one hour. After washing, the bound IgG were detected using peroxidase-conjugated goat anti-mouse IgG (Biosys, Compiegne, France) added at a 1/2000 dilution. Following incubation at 37iC for 1 hour and a final wash, 50 μl of 0.30% H2O2 containing orthophenylenediamine dihydrochloride (OPD, Sigma, St. Louis), dissolved in 0.1 M citrate buffer (pH 5.0) were added to each well at room temperature. The OD450 nm was measured using a multichannel spectrophotometer (Titertek Multiskan MCC. 340). Individual sera from all groups were diluted 1/100 and analyzed separately. Preimmune sera were used as negative controls and the results were expressed either as optical density (OD) at 450nm or as ELISA-RATIO calculated as follows: OD450 nm postimmune sera divided by OD450 nm preimmune sera. […] Isotype analysis of mouse was carried out using class specific […] Goat anti-Mouse IgA, IgM, IgGI, IgG2a, IgG2b or IgG3 HRP-Labeled (Southern Biotechnology Associates, Birmingham, USA) added at a 1/2000 dilution in PBS-T, as previously described (BenMohamed et coll., 1997)."}, "C3H/HeJ mice": {"system": "C3H/HeJ mice", "assay": "Isotype analysis of polypeptide-specific serum antibodies (ELISA)"}, "[2]": {"system": "P. falciparum sporozoites and hepatic schizonts", "assay": "Immunofluorescent Ab assay (IFAT) of sera from mucosally immunized mice", "protocol": "FIG. 2: Mucosal immunization elicits parasite-specific antibody responses. Sera were obtained from C3H/HeJ mice at 2 weeks post-immunization by either nasal or sub-lingual route and assayed fro recognition of (a) P. falciparum sporozoites and (B) hepatic schizonts in an IFI assay as described in Material and Methods. The data are representative of three independent experiments.\nThe reactivity of the sera against native proteins from various stages of the parasite were analyzed by IFAT using either (i) P. falciparum NF54 strain sporozoites (a gift of W. Eling), or (ii) sections from liver biopsies containing day 5 P. falciparum liver schizonts, or (iii) day 6 ½ P. falciparum liver schizonts obtained from a Chimpanzee. IFAT-labeled anti-human IgG, -A, -M (Diagnostic Pasteur France) or anti-mouse (Cappel. Wester Chester. PA) diluted {fraction (1/200 )} were employed as second Abs."}, "[3]": {"system": "spleen and inguinal lymph node cells of C3H/HeJ mice", "assay": "Lymphocyte proliferative assay after immunization with LSA3-NRII polypeptides", "protocol": "FIG. 3: Systemic cellular immune responses are electited by presentation of lipid-tailed polypeptides to the nasal and sub-lingual mucosal surfaces. Groups of five C3H/HeJ mice were administrated with LSA3-NRII lipid-tailed (black bars) or non-lipidated polypeptide (hatched bars) either a) intranasally, b) sub-lingually, or c) subcutaneously. Two weeks after two administrations, cell suspensions from individual spleens were assayed for in vitro proliferation to the recall polypeptide. Results are expressed as Δ cpm. The background cpm, in unstimulated cells were 1548 fro intranasal, 2356 for sub-lingual and 1965 for subcutaneous routs. Bars represent the mean Δ cpm ± SD in each group. The data were similar and are representative of three separate experiments."}, "[4]": {"system": "ganglia sub-mandibulaires cells of BALB/c mice"}}, "note": "*: point of attachment. Palmitoyl = CCCCCCCCCCCCCCCC(=O)*"}
{"substance": "Ac-LEESQVNDDIFNSLVKSVQQEQQHNVK(Pam)NH2 (Ac-LEESQVNDDIFNSLVKSVQQEQQHNVK(Palmitoyl)-NH2; SMILES CCCCCCCCCCCCCCCC(=O)NCCCC[C@H](NC(=O)[C@@H](NC(=O)[C@H](CC(N)=O)NC(=O)[C@H](Cc1c[nH]cn1)NC(=O)[C@H](CCC(N)=O)NC(=O)[C@H](CCC(N)=O)NC(=O)[C@H](CCC(=O)O)NC(=O)[C@H](CCC(N)=O)NC(=O)[C@H](CCC(N)=O)NC(=O)[C@@H](NC(=O)[C@H](CO)NC(=O)[C@H](CCCCN)NC(=O)[C@@H](NC(=O)[C@H](CC(C)C)NC(=O)[C@H](CO)NC(=O)[C@H](CC(N)=O)NC(=O)[C@H](Cc1ccccc1)NC(=O)[C@@H](NC(=O)[C@H](CC(=O)O)NC(=O)[C@H](CC(=O)O)NC(=O)[C@H](CC(N)=O)NC(=O)[C@@H](NC(=O)[C@H](CCC(N)=O)NC(=O)[C@H](CO)NC(=O)[C@H](CCC(=O)O)NC(=O)[C@H](CCC(=O)O)NC(=O)[C@H](CC(C)C)NC(C)=O)C(C)C)[C@@H](C)CC)C(C)C)C(C)C)C(C)C)C(N)=O) [LSA3-NRII lipid-tailed polypeptide, P. falciparum LSA-3 derived polypeptide with palmitoyl tail on side chain of C-terminal lysylamide]", "values": [{"measurement": "antibody response", "setting": "[1]; C57BL/6 strain, mucosal or subcutaneous administration", "value": "No antibody response"}, {"measurement": "polypeptide-specific antibody responses in serum (ELISA)", "setting": "[1]; I.N. or S.L. administration, without adjuvant, BALB/c and C3H/HeJ, serum two weeks after the second administration", "value": "high titers"}, {"measurement": "mean titers of IgG antibodies, mucosal routes versus S.C. route", "setting": "[1]; both mucosal routes (I.N., S.L.) compared with S.C., p<0.05", "value": "significantly higher"}, {"measurement": "polypeptide specific antibody titers, sub-lingual versus intranasal groups", "setting": "[1]; p<0.05 in BALB/c and p<0.01 in C3H/HeJ", "value": "significantly higher"}, {"measurement": "anti-peptide IgA, IgM and IgG3", "setting": "C3H/HeJ mice; all groups (I.N., S.L., S.C.)", "value": "low and similar titers"}, {"measurement": "serum antibody isotype response", "setting": "C3H/HeJ mice; mucosal administration (I.N., S.L.)", "value": "preferential IgG2a"}, {"measurement": "serum antibody isotype response", "setting": "C3H/HeJ mice; subcutaneous route", "value": "dominant IgG1"}, {"measurement": "reactivity of induced Abs with infected RBC's", "setting": "[2]; different steps of intra-erythrocytic maturation", "value": "did not react"}, {"measurement": "reactivity of induced Abs with intact parasite by IFAT", "setting": "[2]; sera of mucosally immunized BALB/c and C3H/HeJ, sporozoite and liver stages", "value": "react with the intact parasite"}, {"measurement": "proliferative responses against irrelevant polypeptide (LSA1-J)", "setting": "[3]; Ag specificity control", "value": "lack of responses"}, {"measurement": "proliferative response in inguinal lymph nodes, maximal delta cpm", "setting": "[3]; S.L. (first value)", "value": 12525, "unit": "cpm"}, {"measurement": "proliferative responses in spleen cells", "setting": "[3]; S.L. or I.N. application, without mucosal adjuvant, recall polypeptide", "value": "strong proliferative responses"}, {"measurement": "phenotype of lymphoproliferative responses", "setting": "[3]; mucosal administration, abrogated by antibodies against CD4 but not by anti-CD8", "value": "CD4 phenotype"}, {"measurement": "proliferative response in inguinal lymph nodes, maximal delta cpm", "setting": "[3]; printed 'in S.L'", "value": 16189, "unit": "cpm"}, {"measurement": "proliferative responses, mucosally versus subcutaneously immunized animals", "setting": "[3]; same dose, P<0.05", "value": "higher levels"}]}
{"substance": "Concanavaline A [CON A, reference compound]", "values": [{"measurement": "immune response (CFSE shift), positive control", "setting": "[4]; in vitro positive control", "value": "maximum immune response"}]}
{"substance": "Nh2-K(NεPam)GRQYIKANSKFIGITERGRILKEPVHGV-COOH [TT-pol. (HIV)]", "values": [{"measurement": "shift of fluorescence (CFSE), immune response", "setting": "[4]; mouse, in vivo", "value": "as intense as that provided by positive CON A control"}]}
